Read-outs that look alike come from different tables or passages of the source.
Assays:
Experiment in all cases: Cytotoxicity of compounds, CellTiter-Glo
Jurkat cells = assay type: cell-based, Human; settings: Homo sapiens, Jurkat
Outline: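 HCC1954 plated at 2500 cells/100 uL and attached overnight; Jurkat plated at 2500 cells/100 uL on the day of dosing. Cells exposed to 8-step 1:3 compound titrations for three nights at 37° C./5% CO2, in triplicate. CellTiter-Glo luminescence converted to % cytotoxicity versus medium-only control; EC50 by three-parameter nonlinear regression.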

AsPC-1 = assay type: cell-based; settings: Homo sapiens, ASPC1, Table 5, read-out: Cytotoxicity (EC50) AsPC-1
Source text: (§1) FIG. 1 summarizes the data for compounds A, B, C, D, and E when tested using the Human mammary carcinoma cell line HCC1954 or Human T-cell leukemia cell line Jurkat. FIGS. 2-6 show the cytotoxicity data plots for individual compounds A-E. Tables 2-6 summarize the results of additional cytotoxicity assays.
(§2) Cell lines used: Human T-cell leukemia cell line Jurkat (ATCC: TIB-152); HCC1954 (ATCC: CRL. 2338); Human Pancreatic cells lines: AsPC-1 (ATCC: CRL-1682), BxPC-3 (ATCC: CRL.1687), HPAF-II (ATCC: CRL.1997), MiaPaCa2 (ATCC: CRL.1420), PANC-1 (ATCC: CRL.1469), Capan-1 (ATCC: HTB-79), Capan-2 (ATCC: HTB-80) and the Human gastric carcinoma cell line NCI-N87 (ATCC: CRL. 5822); AML-193 (ATCC: CRL.9589), CCRF-CEM (ATCC: CCL-119), DU145 (ATCC: HTB-81), PC-3 (ATCC: CRL.1435), A-431 (ATCC: CRL.1555), HT-29 (ATCC: HTB-38), A-172 (ATCC: CRL.1620), NCI-H358 (ATCC: CRL.5807), A549 (ATCC: CCL-185), Colo-205 (ATCC: CCL-222), MDA-MB-231 (ATCC: HTB-26), OVCAR-3 (ATCC: HTB-161), OV-90 (ATCC: CRL.11732), OE19 (Sigma: 96071721), RT 112/84 (Sigma: 85061106).
(§3) On the day prior to adding compounds, HCC1954 AsPC-1, BxPC-3, HPAF-II, MiaPaCa2, PANC-1, Capan-1, Capan-2 and NCI-N87 cells were added to opaque-walled 96-well tissue culture-treated microtiter plates using complete growth medium at a density of 2500 cells/100 microlitre (uL) of medium. These adherant cell lines cells were incubated for one night at 37° C./5% CO2 to allow the cells to attach to the microtiter plate surface. On the day that compounds were added, Jurkat cells are added to separate 96-well microtiter plates at 2500 cells/100 uL using the same growth medium as HCC1954. Compound were first serially diluted using dimethyl sulfoxide, and then the prepared dilutions are added to complete growth medium at five-times the final concentration—compounds were then titrated 1:3, eight steps. A control with no compound (growth medium alone) was included on each microtiter plate in sextuplicate. The prepared compounds titrations were added (twenty-five uL/well) in triplicate. The cells and compound titrations were incubated at 37° C./5% CO2 for three nights. After the incubation, cell viability is measured using CellTiter-Glo® reagent by adding thirty uL of prepared CellTiter-Glo® to each assay well. The assay is incubated for at least twenty minutes in the dark prior to measuring emitted luminescence using a microplate luminometer (500 ms integration time). The collected relative luminescence units (RLU) are converted to % cytotoxicity using the Growth medium alone control mentioned above (% Cytotoxicity=1−[Well RLU/average medium alone control RLU]).
(§4) GraphPad Prism was used for generation of EC50 values using three parameter non-linear regression curve fitting.

MiaPaCa2 = assay type: cell-based; settings: Homo sapiens, MIA PaCa-2; Table 5; MinPaCa2; read-out: Cytotoxicity (EC50) MinPaCa2
Source text: as §1, §2, §3, §4

BxPC-3 = assay type: cell-based; settings: Homo sapiens, Table 5, read-out: Cytotoxicity (EC50) BxPC-3
Source text: as §1, §2, §3, §4

HPAF-II = assay type: cell-based; settings: Homo sapiens, Table 5, read-out: Cytotoxicity (EC50) HPAF-II
Source text: as §1, §2, §3, §4

PANC-1 = assay type: cell-based; settings: Homo sapiens, Table 5, read-out: Cytotoxicity (EC50) PANC-1
Source text: as §1, §2, §3, §4

HCC1954 cells = assay type: cell-based; settings: Homo sapiens
Source text: as §2, §3, §4

[1] = Table 3, Cytotoxicity of Compounds on Jurkat Cells, read-out: EC50
[2] = HCC1954, Table 4, Cytotoxicity of Compounds on HCC-1954 Cells, read-out: EC50
[3] = Table 6, Compound Cytotoxicity on Jurkat, read-out: EC50
[4] = Table 7, Cytotoxicity on Jurkat, read-out: EC50

SMILES	EC50 (Jurkat cells; [1])	EC50 (HCC1954 cells; [2])	EC50 (Jurkat cells; [3])	EC50 (Jurkat cells; [4])	other results
CN[C@H](C(=O)N[C@H](C(=O)N(C)[C@H](/C=C(\C)C(=O)NS(=O)(=O)c1ccc(N)cc1)C(C)C)C(C)(C)C)C(C)(C)c1ccccc1 [Compound 24, (S,E)-N-(4-aminophenylsulfonyl)-2,5-dimethyl-4-((S)—N,3,3-trimethyl-2-((S)-3-methyl-2-(methylamino)-3-phenylbutanamido)butanamido)hex-2-enamide]	0.07 nM	–	–	–	EC50 (AsPC-1): 0.586 nM; EC50 (MiaPaCa2): 0.566 nM; EC50 (BxPC-3): 0.27 nM; EC50 (HPAF-II): 0.396 nM; EC50 (PANC-1): 2.18 nM
CN[C@H](C(=O)N[C@H](C(=O)N(C)[C@H](/C=C(\C)C(=O)NS(=O)(=O)c1ccc(C2(N)CC2)cc1)C(C)C)C(C)(C)C)C(C)(C)c1ccccc1 [Compound 63, (S,E)-N-(4-(1-aminocyclopropyl)phenylsulfonyl)-2,5-dimethyl-4-((S)—N,3,3-trimethyl-2-((S)-3-methyl-2-(methylamino)-3-phenylbutanamido)butanamido) hex-2-enamide]	–	–	–	–	EC50 (AsPC-1): 0.97 nM; EC50 (MiaPaCa2): 1.02 nM; EC50 (BxPC-3): 0.697 nM; EC50 (HPAF-II): 0.826 nM; EC50 (PANC-1): 4 nM
CN[C@H](C(=O)N[C@H](C(=O)N(C)[C@H](/C=C(\C)C(=O)NS(=O)(=O)Cc1ccc(CN)cc1)C(C)C)C(C)(C)C)C(C)(C)c1ccccc1 [Compound 77, (S,E)-N-(4-(aminomethyl)benzylsulfonyl)-2,5-dimethyl-4-((S)—N,3,3-trimethyl-2-((S)-3-methyl-2-(methylamino)-3-phenylbutanamido)butanamido)hex-2-enamide]	–	–	–	–	EC50 (AsPC-1): 15.5 nM; EC50 (MiaPaCa2): 94.3 nM; EC50 (BxPC-3): 36.5 nM; EC50 (HPAF-II): 17.2 nM; EC50 (PANC-1): 97.2 nM
CN[C@H](C(=O)N[C@H](C(=O)N(C)[C@H](/C=C(\C)C(=O)NS(=O)(=O)Cc1ccc(NC(=O)C(F)(F)F)cc1)C(C)C)C(C)(C)C)C(C)(C)c1ccccc1 [Compound 79, (S,E)-2,5-dimethyl-N-(4-(2,2,2-trifluoroacetamido)benzylsulfonyl)-4-((S)—N,3,3-trimethyl-2-((S)-3-methyl-2-(methylamino)-3-phenylbutanamido)butanamido)hex-2-enamide]	0.386 nM	0.241 nM	–	–	–
CN[C@H](C(=O)N[C@H](C(=O)N(C)[C@H](/C=C(\C)C(=O)NS(=O)(=O)Cc1ccc(N)cc1)C(C)C)C(C)(C)C)C(C)(C)c1ccccc1 [Compound 80, (S,E)-N-(4-aminobenzylsulfonyl)-2,5-dimethyl-4-((S)—N,3,3-trimethyl-2-((S)-3-methyl-2-(methylamino)-3-phenylbutanamido)butanamido)hex-2-enamide]	0.389 nM	0.207 nM	–	–	–
CN[C@H](C(=O)N[C@H](C(=O)N(C)[C@H](/C=C(\C)C(=O)NS(=O)(=O)c1ccc(N)c(OC(F)(F)F)c1)C(C)C)C(C)(C)C)C(C)(C)c1ccccc1 [Compound 108, (S,E)-N-(4-amino-3-(trifluoromethoxy)phenylsulfonyl)-2,5-dimethyl-4-((S)—N,3,3-trimethyl-2-((S)-3-methyl-2-(methylamino)-3-phenylbutanamido)butanamido)hex-2-enamide]	–	–	0.017 nM	0.017 nM	–
CN[C@H](C(=O)N[C@H](C(=O)N(C)[C@H](/C=C(\C)C(=O)NS(=O)(=O)c1ccc(N)c(C)c1C)C(C)C)C(C)(C)C)C(C)(C)c1ccccc1 [Compound 109, (S,E)-N-(4-amino-2,3-dimethylphenylsulfonyl)-2,5-dimethyl-4-((S)—N,3,3-trimethyl-2-((S)-3-methyl-2-(methylamino)-3-phenylbutanamido)butanamido) hex-2-enamide]	–	–	0.087 nM	0.087 nM	–
CN[C@H](C(=O)N[C@H](C(=O)N(C)[C@H](/C=C(\C)C(=O)NS(=O)(=O)c1ccc(N)c2c1CCCC2)C(C)C)C(C)(C)C)C(C)(C)c1ccccc1 [Compound 110, (S,E)-N-(4-amino-5,6,7,8-tetrahydronaphthalen-1-ylsulfonyl)-2,5-dimethyl-4-((S)—N,3,3-trimethyl-2-((S)-3-methyl-2-(methylamino)-3-phenylbutanamido)butanamido)hex-2-enamide]	–	–	0.031 nM	0.031 nM	–
CN[C@H](C(=O)N[C@H](C(=O)N(C)[C@H](/C=C(\C)C(=O)NS(=O)(=O)c1ccc(N)c(C)c1)C(C)C)C(C)(C)C)C(C)(C)c1ccccc1 [Compound 111, (S,E)-N-(4-amino-3-methylphenylsulfonyl)-2,5-dimethyl-4-((S)—N,3,3-trimethyl-2-((S)-3-methyl-2-(methylamino)-3-phenylbutanamido)butanamido)hex-2-enamide]	–	–	~0.118 nM	0.12 nM	–
CN[C@H](C(=O)N[C@H](C(=O)N(C)[C@H](/C=C(\C)C(=O)NS(=O)(=O)c1ccc(N)c(F)c1)C(C)C)C(C)(C)C)C(C)(C)c1ccccc1 [Compound 112, (S,E)-N-(4-amino-3-fluorophenylsulfonyl)-2,5-dimethyl-4-((S)—N,3,3-trimethyl-2-((S)-3-methyl-2-(methylamino)-3-phenylbutanamido)butanamido)hex-2-enamide]	–	–	0.064 nM	0.064 nM	–
CN[C@H](C(=O)N[C@H](C(=O)N(C)[C@H](/C=C(\C)C(=O)NS(=O)(=O)c1ccc(N)c(C(F)(F)F)c1)C(C)C)C(C)(C)C)C(C)(C)c1ccccc1 [Compound 114, (S,E)-N-(4-amino-3-(trifluoromethyl)phenylsulfonyl)-2,5-di methyl-4-((S)—N,3,3-trimethyl-2-((S)-3-methyl-2-(methylamino)-3-phenylbutanamido)butanamido)hex-2-enamide]	–	–	0.056 nM	0.056 nM	–
C/C(=C\[C@H](C(C)C)N(C)C(=O)[C@@H](NC(=O)[C@@H]1CCCCN1C(C)C)C(C)(C)C)C(=O)NS(=O)(=O)CCCS [Compound 115, (S)-1-isopropyl-N—((S)-1-(((S,E)-6-(3-mercaptopropylsulfonamido)-2,5-dimethyl-6-oxohex-4-en-3-yl)(methyl)amino)-3,3-dimethyl-1-oxobutan-2-yl)piperidine-2-carboxamide]	36 nM	172 nM	–	–	–
CN[C@H](C(=O)N[C@H](C(=O)N(C)[C@H](/C=C(\C)C(=O)NS(C)(=O)=O)C(C)C)C(C)(C)C)C(C)(C)c1ccccc1 [Compound E, (S,E)-2,5-dimethyl-N-(methylsulfonyl)-4-((S)—N,3,3-trimethyl-2-((S)-3-methyl-2-(methylamino)-3-phenylbutanamido)butanamido)hex-2-enanmide]	1.67 nM	0.79 nM	–	–	EC50 (Jurkat cells; Table 1, Jurkat cells (HER2−), three nights, read-out: Jurkat cells (HER2−) EC50): 1.67 nM; EC50 (Jurkat cells; Table 2, read-out: Jurkat EC50): 1.67 nM; EC50 (HCC1954 cells; Table 1, HCC1954 cells (HER2+), three nights, read-out: HCC1954 cells (HER2+) EC50): 0.79 nM; EC50 (HCC1954 cells; Table 2, HCC1954, read-out: HCC1954 EC50): 0.79 nM

Source: patent US11617777B2, “Cytotoxic and anti-mitotic compounds, and methods of using the same” (ZYMEWORKS BC INC., priority 2013, dated 2023)
